Reference: article PMC9127750, “Structure-based design of CDC42 effector interaction inhibitors for the treatment of cancer” (Cell reports, 2022)
Entries after “also recorded” stand apart in the source; their conditions may differ.

Legend:
SKMel28 melanoma cells = assay: Cancer cell line viability assay (CellTiterGlo); format: cell-based, Human; conditions: for dose response in SKM28 cell lines: Figure S2F; for decrease of activity compared with the hit: SKM28 cells, versus ARN12405
[1] = target: T1, CDC42 and PAK1-PBD interaction (Homo sapiens, UniProt P60953); assay: CDC42 interaction assay (PAK1-PBD pull-down); format: cell-based; conditions: WM3248 cells; ARN22089 at 10 and 50 μM, lysates incubated with GTP; ARN12405 indicated doses (Fig S2B)
T1 construct: endogenous in cells; host or cells: WM3248 (or WM983B) melanoma cells; PAK1 PBD beads from Cell Biolabs kit
T1 sequence (P60953 1-188 limits assumed): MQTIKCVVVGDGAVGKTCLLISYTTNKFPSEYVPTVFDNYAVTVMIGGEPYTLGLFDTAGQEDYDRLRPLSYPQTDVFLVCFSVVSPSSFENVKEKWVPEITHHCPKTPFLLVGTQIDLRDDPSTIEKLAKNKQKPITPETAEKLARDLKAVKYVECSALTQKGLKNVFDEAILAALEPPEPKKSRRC
Experimental: (§1) 24 hours later the lysates from treated and untreated cells were unloaded of guanosine nucleotides and either loaded with GDP or GTPγS. […] Precipitated lysates were then immunoblotted with indicated antibodies.

[2] = target: T2, RHOJ and PAK1-PBD interaction (Homo sapiens, UniProt Q9H4E5); assay: CDC42 interaction assay (PAK1-PBD pull-down); format: cell-based; conditions: WM3248 cells; ARN22089 at 10 and 50 μM, lysates incubated with GTP; ARN12405 indicated doses (Fig S2B)
T2 construct: endogenous in cells; host or cells: WM3248 (or WM983B) melanoma cells; PAK1 PBD beads from Cell Biolabs kit
T2 sequence (Q9H4E5 1-211 limits assumed): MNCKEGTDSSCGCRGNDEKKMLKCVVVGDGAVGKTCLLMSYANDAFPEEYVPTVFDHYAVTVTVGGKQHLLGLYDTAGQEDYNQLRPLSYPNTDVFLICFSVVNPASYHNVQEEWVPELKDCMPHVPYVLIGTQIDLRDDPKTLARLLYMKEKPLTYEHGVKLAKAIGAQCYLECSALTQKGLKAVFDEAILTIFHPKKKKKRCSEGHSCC
Experimental: as §1

WM3248 = assay: cells; conditions: Homo sapiens, WM3248, read-out: IC50 WM3248
Experimental: (§2) Cancer cell line viability assay was performed using a CellTiterGlo assay. Cells were cultured in their appropriate media and seeded in white multi-well plates. For the assays, cells were incubated with compound at 37°C overnight, and a CellTiterGlo assay was performed to quantify viable cells.

[3] = tested on: VMOs (vessels, no tumor cells); assay: Vascularized micro-organ (VMO) assay; format: cell-based, Human; conditions: no tumor cells (Figure 4D)
Experimental: (§3) Briefly, human endothelial colony-forming cell-derived endothelial cells (ECFC-EC) are isolated from cord blood via selection for the CD31 + cell population and cultured in EGM2 medium (Lonza). […] Cancer cells and LF are cultured in DMEM (Corning) containing 10% FBS (Gemini Bio). […] To load the microfluidic device, ECFC-EC and LF (both 8 × 10^6 cells/mL) and cancer cells (2.5 × 10^6 cells/mL) were resuspended in fibrinogen solution (10 mg/mL basal medium). The cell slurry was then mixed with 1 mL thrombin (3 U/mL) to catalyze gel solidification and quickly loaded into the tissue chambers of each VMT unit. […] All cells and VMTs are cultured in a 37°C, 20% O2, 5% O2 environment.
(§4) Fluorescence images were acquired with an Olympus IX70 inverted microscope using SPOT software (SPOT Imaging, Sterling Heights, Michigan). […] Each chamber was normalized to time 0 baseline.

[4] = tested on: WM3248, SKMel3, A375, SW480, and SKM28; assay: cells; conditions: Homo sapiens, read-out: IC50 across cancer cell lines
Experimental: as §2

A375 VMT = assay: Vascularized microtumor (VMT) assay; format: cell-based, Human; conditions: 2 μM
Experimental: as §3, §4

In the case of `COc1ccc(Nc2cc(-c3ccccc3)nc(C3CCOCC3)n2)cc1` [ARN22162, N-(4-methoxyphenyl)-6-phenyl-2-tetrahydropyran-4-yl-pyrimidin-4-amine], the “dose response in SKM28 cell lines” value (SKMel28 melanoma cells) is reported as “no dose response”.

With `Clc1ccc(Nc2cc(-c3ccncc3)nc(C3CCCNC3)n2)cc1` (centres unmarked) [ARN12405] the “inhibition of CDC42 - PAK1-PBD interaction” value [1] was “inhibits RHOJ/CDC42-PAK interactions; also recorded: blocked the RHOJ/CDC42 PAK interaction” and the “inhibition of RHOJ - PAK1-PBD interaction” value [2] was “inhibits RHOJ/CDC42-PAK interactions; also recorded: blocked the RHOJ/CDC42 PAK interaction”.

In the case of `CN(C)c1ccc(Nc2cc(-c3ccccc3)nc(C3CCOCC3)n2)cc1` [ARN22163, N4,N4-dimethyl-N1-(6-phenyl-2-tetrahydropyran-4-yl-pyrimidin-4-yl)benzene-1,4-diamine], the “dose response in SKM28 cell lines” value (SKMel28 melanoma cells) is reported as “no dose response”.

`Clc1cccc(Nc2cc(-c3ccncc3)nc(C3CCCNC3)n2)c1` (centres unmarked) [ARN21700] was tested, and the “decrease of activity compared with the hit” value (SKMel28 melanoma cells) was 2 fold and the IC50 (WM3248) was 30.9 µM.

In the case of `Cc1ccc(F)c(NC(=O)Nc2ccc(-c3cccc4[nH]nc(N)c34)cc2)c1` [linifanib], the “vessel growth / angiogenesis in VMOs” value [3] is reported as “did inhibit angiogenesis”.

With `c1ccc(Nc2cc(-c3ccncc3)nc(C3CCCNC3)n2)cc1` (centres unmarked) [ARN21699] the “decrease of activity compared with the hit” value (SKMel28 melanoma cells) was 2 fold.

For `Clc1ccc(Nc2cc(-c3ccccc3)nc(C3CCCNC3)n2)cc1` (centres unmarked) [ARN21698], the IC50 [4] was 6.3 to 10.9 µM and the IC50 (WM3248) was 8.42 µM.

`CCn1c(=O)c(-c2ccc(-c3cncs3)cc2Cl)cc2cnc(Nc3ccc(N4CCN(C)CC4)cc3)nc21` [FRAX597] was tested, and the “growth of A375 cells and blood vessels in VMT” value (A375 VMT) was “did not significantly inhibit”.
